{"source": "patent US20040191842A1", "about": "“Chemopreventive and therapeutic aspects of polyphenolic compositions and assays” (Medical College of Georgia Research Institute, Inc., priority 2002, published 2004)", "type_in_all_cases": "cell-based, human", "key": {"Apaf-1": {"test_system": "Apaf-1", "assay": "Western blot of Apaf-1 in epidermal keratinocytes", "conditions": "increasing concentrations of EGCG", "protocol": "Western blot analysis. The keratinocytes and the mammary epithelial cells were placed in KGM-2 and MEGM, respectively, overnight prior to treatment. Cells were lysed, after 24-hour treatment, in RIPA buffer (1% NP-40, 1% sodium deoxycholate, 0.1% SDS, 0.15 M NaCl, 0.01 M sodium phosphate, pH 7.2, and 1% Trasylol) containing proteinase inhibitors (1 mM PMSF, 1 μg/ml each of aprotinin, leupeptin, and pepstatin). The concentration of protein in each sample was determined using the BioRad DC Protein Assay and spectrophotometry. 50 μg of protein from each sample and a BioRad molecular weight standard marker were run on a 10% SDS-PAGE, followed by transfer to nitrocellulose membranes. Nonspecific binding to the membranes was blocked with 10% nonfat milk. Primary polyclonal (rabbit) antibodies and a horseradish peroxidase-conjugated goat anti-rabbit secondary antibody were used in conjunction with the ECL Chemiluminescence Kit (Amersham Pharmacia Biotech, New Jersey) and membranes were exposed to radiographic films for detection. Western blots were digitized for comparison of the intensity for each band using the ImageTool image analysis software program (University of Texas Health Science Center, San Antonio, Tex.). The integrated density of each band was measured using identical 1480 pixel areas of each Apfa-1 or Actin band at a scale of densities from 0 to 255. […]"}, "OSC-4 cells": {"test_system": "OSC-4 cells", "assay": "Intracellular ROS levels (DFDA assay), OSC-4 cells", "conditions": "for intracellular ROS levels vs control: 120 minute time point", "protocol": "(§1) Measurement of intracellular ROS levels. The ROS assay measures the accumulation of intracellular ROS levels. The non-fluorescent dye DFDA passively diffuses into cells, where the acetates are cleaved by intracellular esterases. […] Thus, values of the fluorescence in the cell cultures are constantly rising in this assay. Cells (1.5×10^4 cells/well) were incubated with Hallam's physiological saline (HPS) containing DFDA (10 μM) in a 96-well microplate for 30 minutes at 37° C. After the incubation, cells were washed three times with HPS and then incubated with HPS containing EGCG (15-200 μM) or diamide (5 mM) for the indicated time periods. The intracellular ROS levels were measured by using a fluorescence plate reader (BIO-TEK FL600, Bio-Tek Instruments, Inc., Winooski, Vt.), at an excitation wavelength of 485 nm and an emission wavelength of 530 nm.\nas §1, with “assay (DFDA assay)” for “assay”, “dye dichlorofluorescein diacetate (DFDA)” for “dye DFDA”, “this assay due to the accumulation of ROS.” for “this assay.”, “EGCG (50-200” for “EGCG (15-200”, “indicated times.” for “indicated time periods.”"}, "p57 (KIP2)": {"test_system": "p57 (KIP2)", "protocol": "Cell treatments. For 24 hours treatments, exponentially growing cells with 40% confluency (to minimize differentiation and spontaneous apoptosis) were either maintained in 50 μM EGCG (2.29 mg/100 ml) or 0.2 mg/ml of GTPPs in tissue culture flasks (25 cm^2). Control flasks contained cells without any treatment. To test whether BaP or NNK interfere with the induction of p57, the human keratinocytes were treated with 0.12 μM BaP, or 10 μM NNK, either alone or in combination with 50 μM EGCG. To examine the time course of p57 induction, cells were treated with 50 μM EGCG and harvested for Western analysis at 30 minutes, 2 hours, 6 hours, and 24 hours. The human keratinocytes were treated when the cell density reached 85-90% confluency (to mimic the epithelium).\nIn a parallel series of experiments, treatment with EGCG was performed with 30 micrograms per milliliter (μg/ml) cycloheximide added to the keratinocyte media 30 minutes prior to the addition of EGCG. The dose-response experiments were performed using EGCG concentrations at 30, 50 100, and 200 μM in the culture media for 24 hours.\nWestern blot analysis. Cells from different treatment groups were lysed in RIPA buffer (1% NP-40, 1% sodium deoxycholate, 0.1% SDS, 0.15 M NaCl, 0.01 M sodium phosphate, pH 7.2, and 1% Trasylol) containing proteinase inhibitors (1 mM PMSF, 1 μg/ml each of aprotinin, leupeptin, and pepstatin). The concentration of protein in each sample was determined using the BioRad DC Protein Assay and spectrophotometry. Fifty micrograms (μg) of protein from each sample and a BioRad molecular weight standard marker were run on a 10% SDS-PAGE, followed by transfer to nitrocellulose membranes. Nonspecific binding to membranes was blocked with 10% nonfat milk. Specific primary polyclonal (rabbit) antibody against p57 and a horse radish peroxidase-conjugated goat anti-rabbit secondary antibody were used in conjunction with the ECL Chemiluminescence Kit and membranes were exposed to radiographic films for detection."}, "caspase 14": {"test_system": "caspase 14", "assay": "Apoptosis macroarray, caspase 14 mRNA in NHEK", "protocol": "To identify additional factors those suppress EGCG -induced apoptosis and facilitate cell differentiation in NHEK, exponentially growing NHEK (Cambrex, Baltimore, Md.) were exposed to 100 μM EGCG for 0, 2, 6 and 24 hours, prior to total RNA isolation using the Qiagen RNeasy mini kit (Valencia, Calif.), which was followed by RT-PCR labeling and hybridization with the Human Apoptosis Macroarray membrane (Sigma-Genosys, The Woodlands, Tex.). Total cell lysates also were collected following a variety of EGCG treatments. The protein levels for caspase 14 and p21 were determined by immuno-blotting using antibodies specific for caspase 14 and p21 (Santa Cruz Biotechnology, Santa Cruz, Calif.).\nNormal human epidermal keratinocytes (NHEK; Cambrex), and oral squamous cell carcinoma (OSC2) cells, originally from gingival tissue, were compared. Exponentially growing cells were exposed to 50 or 100 μM EGCG for 0 hours, 2 hours, 6 hours or 24 hours. Cells were harvested for total RNA, which was examined by apoptosis macroarrays (Sigma Genosys), followed by phosphorimagery and data analysis (GeneSpring). Protein production of expressed genes was confirmed by Western blotting of whole cell lysates."}}}
{"smiles": "O=C(O[C@@H]1Cc2c(O)cc(O)cc2O[C@@H]1c1cc(O)c(O)c(O)c1)c1cc(O)c(O)c(O)c1", "note": "[EGCG, (−)-epigallocatechin-3-gallate]", "values": [{"measurement": "Apaf-1 levels", "setting": "Apaf-1", "value": "stable basal levels of Apaf-1"}, {"measurement": "intracellular ROS levels vs controls", "setting": "OSC-4 cells; 50 μM EGCG, 60 minute exposure", "value": "remained comparable to the controls"}, {"measurement": "intracellular ROS levels vs control", "setting": "OSC-4 cells; 50 μM EGCG", "value": "ROS levels identical to the control cells"}, {"measurement": "intracellular ROS levels vs control", "setting": "OSC-4 cells; 200 μM EGCG", "value": "remained higher than the control cells"}, {"measurement": "time at which rate of ROS production peaked", "setting": "OSC-4 cells; EGCG", "value": 60, "unit": "min"}, {"measurement": "H2O2 concentration producing ROS equivalent to 200 μM EGCG", "setting": "OSC-4 cells; first hour", "value": 100, "unit": "µM"}, {"measurement": "p57 protein accumulation", "setting": "p57 (KIP2); 50 μM EGCG or 0.2 mg/ml GTPPs, 24 h, 40% confluency", "value": "accumulated in normal human epithelial cells"}, {"measurement": "EGCG-stimulated p57 protein accumulation when BaP and NNK were present", "setting": "p57 (KIP2); 50 μM EGCG with 0.12 μM BaP or 10 μM NNK", "value": "still occurred"}, {"measurement": "time of peak p57 expression", "setting": "p57 (KIP2); 50 μM EGCG, cell density 90%", "value": 6, "unit": "h"}, {"measurement": "p57 levels over 24 hours", "setting": "p57 (KIP2); 100 μM or 200 μM EGCG, 90% confluency", "value": "remained high throughout the 24 hours period"}, {"measurement": "caspase 14 gene expression upregulated", "setting": "caspase 14; 100 μM EGCG (Example 10)", "value": "at least 2 fold"}, {"measurement": "caspase 14 mRNA expression above control", "setting": "caspase 14; 100 μM EGCG, 24 hours", "value": "approximately three"}]}
